Data published in patent US20240238242A1, “EGCG buccal tablet and use thereof” (priority 2023, published 2024).
Several values for one entry are separate records, joined by “and”; a condition that tells them apart may be missing. Equal entries are not always repeated. Where two headings read alike, the source gives them in different places.

Tested on: Influenza A virus neuraminidase inhibitor-resistant strain (ZX-1109)
Assay type: cell-based

O=C(O[C@@H]1Cc2c(O)cc(O)cc2O[C@@H]1c1cc(O)c(O)c(O)c1)c1cc(O)c(O)c(O)c1 [EGCG, Epigallocatechin gallate]
+: CPE test per cell well (0.2 mM EGCG + ZX1109 virus, 1 minute, second experiment, dilution factor 10^1, wells 1-10) | CPE test per cell well (0.2 mM EGCG + ZX1109 virus, 1 minute, second experiment, dilution factor 10^2, wells 1-10) | CPE test per cell well (0.2 mM EGCG + ZX1109 virus, 1 minute, second experiment, dilution factor 10^3, wells 1-10) | CPE test per cell well (0.2 mM EGCG + ZX1109 virus, 1 minute, second experiment, dilution factor 10^4, wells 1-10) | CPE test per cell well (0.2 mM EGCG + ZX-1109 virus, 1 minute, first experiment, dilution factor 10^1, wells 1-10) | CPE test per cell well (0.2 mM EGCG + ZX-1109 virus, 1 minute, first experiment, dilution factor 10^2, wells 1-10) | CPE test per cell well (0.2 mM EGCG + ZX-1109 virus, 1 minute, first experiment, dilution factor 10^3, wells 1-10) | CPE test per cell well (0.2 mM EGCG + ZX-1109 virus, 1 minute, first experiment, dilution factor 10^4, wells 1-10) | CPE test (virus replication in the cell wells) (0.2 mM EGCG + ZX-1109 virus, 1 minute, third experiment, dilution factor 10^1, wells 1-10) | CPE test (virus replication in the cell wells) (0.2 mM EGCG + ZX-1109 virus, 1 minute, third experiment, dilution factor 10^2, wells 1-10) | CPE test (virus replication in the cell wells) (0.2 mM EGCG + ZX-1109 virus, 1 minute, third experiment, dilution factor 10^3, wells 1-10) | CPE test (virus replication in the cell wells) (0.2 mM EGCG + ZX-1109 virus, 1 minute, third experiment, dilution factor 10^4, wells 1-10) | CPE test (virus replication in the cell wells) (0.2 mM EGCG + ZX-1109 virus, 5 minute, first experiment, dilution factor 10^1, wells 1-10) | CPE test (virus replication in the cell wells) (0.2 mM EGCG + ZX-1109 virus, 5 minute, first experiment, dilution factor 10^2, wells 1-10) | CPE test (virus replication in the cell wells) (0.2 mM EGCG + ZX-1109 virus, 5 minute, first experiment, dilution factor 10^3, wells 1-10) | CPE test (virus replication in the cell wells) (0.2 mM EGCG + ZX-1109 virus, 5 minute, first experiment, dilution factor 10^4, wells 1-10) | CPE test (virus replication in the cell wells) (0.2 mM EGCG + ZX-1109 virus, 5 minute, first experiment, dilution factor 10^5, wells 1-10) | CPE test (virus replication in the cell wells) (0.2 mM EGCG + ZX-1109 virus, 5 minute, second experiment, dilution factor 10^1, wells 1-10) | CPE test (virus replication in the cell wells) (0.2 mM EGCG + ZX-1109 virus, 5 minute, second experiment, dilution factor 10^2, wells 1-10) | CPE test (virus replication in the cell wells) (0.2 mM EGCG + ZX-1109 virus, 5 minute, second experiment, dilution factor 10^3, wells 1-10) | CPE test (virus replication in the cell wells) (0.2 mM EGCG + ZX-1109 virus, 5 minute, second experiment, dilution factor 10^4, wells 1-10) | CPE test per cell well (0.2 mM EGCG + ZX-1109 virus, 5 minute, third experiment, dilution factor 10^1, wells 1-10) | CPE test per cell well (0.2 mM EGCG + ZX-1109 virus, 5 minute, third experiment, dilution factor 10^2, wells 1-10) | CPE test per cell well (0.2 mM EGCG + ZX-1109 virus, 5 minute, third experiment, dilution factor 10^3, wells 1-10) | CPE test per cell well (0.2 mM EGCG + ZX-1109 virus, 5 minute, third experiment, dilution factor 10^4, wells 1-10) | CPE test per cell well (0.2 mM EGCG + ZX-1109 virus, 5 minute, third experiment, dilution factor 10^5, wells 1-10) | CPE test per cell well (1 mM EGCG + ZX1109 virus, 1 minute, second experiment, dilution factor 10^1, wells 1-10) | CPE test per cell well (1 mM EGCG + ZX1109 virus, 1 minute, second experiment, dilution factor 10^2, wells 1-10) | CPE test per cell well (1 mM EGCG + ZX1109 virus, 1 minute, second experiment, dilution factor 10^3, wells 1-10) | CPE test per cell well (1 mM EGCG + ZX1109 virus, 1 minute, second experiment, dilution factor 10^4, wells 1-10) | CPE test per cell well (1 mM EGCG + ZX-1109 virus, 1 minute, first experiment, dilution factor 10^1, wells 1-10) | CPE test per cell well (1 mM EGCG + ZX-1109 virus, 1 minute, first experiment, dilution factor 10^2, wells 1-10) | CPE test per cell well (1 mM EGCG + ZX-1109 virus, 1 minute, first experiment, dilution factor 10^3, wells 1-10) | CPE test per cell well (1 mM EGCG + ZX-1109 virus, 1 minute, first experiment, dilution factor 10^4, wells 1-10) | CPE test (virus replication in the cell wells) (1 mM EGCG + ZX-1109 virus, 1 minute, third experiment, dilution factor 10^1, wells 1-10) | CPE test (virus replication in the cell wells) (1 mM EGCG + ZX-1109 virus, 1 minute, third experiment, dilution factor 10^2, wells 1-10) | CPE test (virus replication in the cell wells) (1 mM EGCG + ZX-1109 virus, 1 minute, third experiment, dilution factor 10^3, wells 1-10) | CPE test (virus replication in the cell wells) (1 mM EGCG + ZX-1109 virus, 1 minute, third experiment, dilution factor 10^4, wells 1-10)
92.16%: average inactivation efficiency against virus (0.2 mM EGCG, ZX1109 virus, 5 minutes, three experiments)
− and +: CPE test (virus replication in the cell wells) (0.2 mM EGCG + ZX-1109 virus, 1 minute, third experiment, dilution factor 10^5, wells 1-10) | CPE test (virus replication in the cell wells) (0.2 mM EGCG + ZX-1109 virus, 5 minute, first experiment, dilution factor 10^6, wells 1-10) | CPE test (virus replication in the cell wells) (0.2 mM EGCG + ZX-1109 virus, 5 minute, first experiment, dilution factor 10^7, wells 1-10) | CPE test (virus replication in the cell wells) (0.2 mM EGCG + ZX-1109 virus, 5 minute, first experiment, dilution factor 10^8, wells 1-10) | CPE test (virus replication in the cell wells) (0.2 mM EGCG + ZX-1109 virus, 5 minute, second experiment, dilution factor 10^6, wells 1-10) | CPE test per cell well (0.2 mM EGCG + ZX-1109 virus, 5 minute, third experiment, dilution factor 10^8, wells 1-10) | CPE test per cell well (1 mM EGCG + ZX1109 virus, 1 minute, second experiment, dilution factor 10^5, wells 1-10)
98.42% and 98.00% and 80.05%: inactivation efficiency against the virus (0.2 mM EGCG, ZX-1109 virus, 5 minutes, single experiment)
+ and −: CPE test per cell well (0.2 mM EGCG + ZX1109 virus, 1 minute, second experiment, dilution factor 10^5, wells 1-10) | CPE test per cell well (0.2 mM EGCG + ZX-1109 virus, 1 minute, first experiment, dilution factor 10^5, wells 1-10) | CPE test per cell well (0.2 mM EGCG + ZX-1109 virus, 1 minute, first experiment, dilution factor 10^6, wells 1-10) | CPE test (virus replication in the cell wells) (0.2 mM EGCG + ZX-1109 virus, 1 minute, third experiment, dilution factor 10^6, wells 1-10) | CPE test (virus replication in the cell wells) (0.2 mM EGCG + ZX-1109 virus, 5 minute, second experiment, dilution factor 10^5, wells 1-10) | CPE test per cell well (0.2 mM EGCG + ZX-1109 virus, 5 minute, third experiment, dilution factor 10^6, wells 1-10) | CPE test per cell well (0.2 mM EGCG + ZX-1109 virus, 5 minute, third experiment, dilution factor 10^7, wells 1-10) | CPE test per cell well (1 mM EGCG + ZX-1109 virus, 1 minute, first experiment, dilution factor 10^5, wells 1-10) | CPE test (virus replication in the cell wells) (1 mM EGCG + ZX-1109 virus, 1 minute, third experiment, dilution factor 10^5, wells 1-10)
−: CPE test per cell well (0.2 mM EGCG + ZX1109 virus, 1 minute, second experiment, dilution factor 10^6, wells 1-10) | CPE test per cell well (0.2 mM EGCG + ZX1109 virus, 1 minute, second experiment, dilution factor 10^7, wells 1-10) | CPE test per cell well (0.2 mM EGCG + ZX1109 virus, 1 minute, second experiment, dilution factor 10^8, wells 1-10) | CPE test per cell well (0.2 mM EGCG + ZX-1109 virus, 1 minute, first experiment, dilution factor 10^7, wells 1-10) | CPE test per cell well (0.2 mM EGCG + ZX-1109 virus, 1 minute, first experiment, dilution factor 10^8, wells 1-10) | CPE test (virus replication in the cell wells) (0.2 mM EGCG + ZX-1109 virus, 1 minute, third experiment, dilution factor 10^7, wells 1-10) | CPE test (virus replication in the cell wells) (0.2 mM EGCG + ZX-1109 virus, 1 minute, third experiment, dilution factor 10^8, wells 1-10) | CPE test (virus replication in the cell wells) (0.2 mM EGCG + ZX-1109 virus, 5 minute, second experiment, dilution factor 10^7, wells 1-10) | CPE test per cell well (1 mM EGCG + ZX1109 virus, 1 minute, second experiment, dilution factor 10^6, wells 1-10) | CPE test per cell well (1 mM EGCG + ZX1109 virus, 1 minute, second experiment, dilution factor 10^7, wells 1-10) | CPE test per cell well (1 mM EGCG + ZX1109 virus, 1 minute, second experiment, dilution factor 10^8, wells 1-10) | CPE test per cell well (1 mM EGCG + ZX-1109 virus, 1 minute, first experiment, dilution factor 10^6, wells 1-10) | CPE test per cell well (1 mM EGCG + ZX-1109 virus, 1 minute, first experiment, dilution factor 10^7, wells 1-10) | CPE test per cell well (1 mM EGCG + ZX-1109 virus, 1 minute, first experiment, dilution factor 10^8, wells 1-10)
10^7 TCID50/50 μL: residual virus titer of EGCG+virus group (Karber method) (0.2 mM EGCG, ZX-1109 virus, 5 minutes)
